Measurements as given in patent US7407982B2, “Oligo or polyalkylene glycol-coupled thrombin inhibitors” (HaemoSys GmbH, priority 2001, dated 2008).
Where two headings read alike, the source gives them in different places.

Assays:
thrombin [1] = target: T1, thrombin (Homo sapiens, UniProt P00734); conditions: taken from the literature, cited from earlier work
tPA = tPA (Homo sapiens, UniProt P00750); experiment: Inhibiting constants with respect to tPA; format: biochemical; conditions: Example 8a table
tPA, sequence (P00750 36-562, species assumed): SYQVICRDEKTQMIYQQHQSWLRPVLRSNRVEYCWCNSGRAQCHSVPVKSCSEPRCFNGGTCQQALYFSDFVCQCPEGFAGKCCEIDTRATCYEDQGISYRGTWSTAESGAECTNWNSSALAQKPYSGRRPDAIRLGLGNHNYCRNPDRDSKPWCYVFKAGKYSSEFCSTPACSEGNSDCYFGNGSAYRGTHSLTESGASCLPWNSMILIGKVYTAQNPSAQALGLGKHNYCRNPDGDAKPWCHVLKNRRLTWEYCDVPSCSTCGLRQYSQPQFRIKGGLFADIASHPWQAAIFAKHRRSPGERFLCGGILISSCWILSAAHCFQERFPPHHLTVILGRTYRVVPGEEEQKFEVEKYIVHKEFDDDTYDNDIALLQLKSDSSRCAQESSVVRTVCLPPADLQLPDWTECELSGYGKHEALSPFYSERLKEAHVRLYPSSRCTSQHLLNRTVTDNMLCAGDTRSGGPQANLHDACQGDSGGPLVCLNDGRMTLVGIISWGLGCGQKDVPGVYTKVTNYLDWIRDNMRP
From the text: (§1) For this reason, two selected representatives of the inhibitors without PEG described in Tables 1 and 2 and one PEG-coupled inhibitor were examined with respect to their inhibiting effect on these enzymes.
(§2) Inhibiting constants of selected inhibitors with respect to the enzymes thrombin, plasmin, urokinase and tPA (values given in nM).

plasmin = plasmin (Homo sapiens, UniProt P00747); experiment: Inhibiting constants with respect to plasmin; format: biochemical; conditions: Example 8a table
plasmin, sequence (P00747 581-810 limits assumed, species assumed): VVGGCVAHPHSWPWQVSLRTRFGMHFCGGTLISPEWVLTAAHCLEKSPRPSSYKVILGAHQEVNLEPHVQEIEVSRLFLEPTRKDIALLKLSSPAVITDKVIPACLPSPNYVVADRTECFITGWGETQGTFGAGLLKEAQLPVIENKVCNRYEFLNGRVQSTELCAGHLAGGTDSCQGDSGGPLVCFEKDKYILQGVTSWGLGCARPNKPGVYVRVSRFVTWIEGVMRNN
plasmin, sequence (P00747 97-580 partner limits assumed, species assumed): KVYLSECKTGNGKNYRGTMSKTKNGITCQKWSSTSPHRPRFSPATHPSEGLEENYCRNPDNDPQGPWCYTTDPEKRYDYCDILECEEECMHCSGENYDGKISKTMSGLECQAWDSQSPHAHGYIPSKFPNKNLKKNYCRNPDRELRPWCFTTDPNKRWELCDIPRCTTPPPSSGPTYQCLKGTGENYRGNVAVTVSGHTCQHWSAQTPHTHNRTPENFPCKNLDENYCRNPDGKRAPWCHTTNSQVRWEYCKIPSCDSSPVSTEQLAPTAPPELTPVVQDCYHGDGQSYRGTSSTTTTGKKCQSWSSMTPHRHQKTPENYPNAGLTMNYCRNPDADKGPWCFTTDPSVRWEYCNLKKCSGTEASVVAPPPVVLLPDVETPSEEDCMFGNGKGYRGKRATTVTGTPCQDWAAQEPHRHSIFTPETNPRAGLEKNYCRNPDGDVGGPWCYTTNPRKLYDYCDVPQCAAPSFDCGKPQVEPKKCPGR
From the text: as §1, §2

human α-thrombin = target: T2, human α-thrombin (Homo sapiens, UniProt P00734); experiment: Determination of Ki for thrombin inhibition (chromogenic or fluorogenic substrate, Dixon); format: biochemical; conditions: for KiTrypsin/KiThrombin: Example 8, selectivity quotient
T2 construct: 50 μl human α-thrombin (Kordia); purchased Kordia
Protocol: The Ki values are the average values of at least three calculations.
For determining the thrombin inhibiting effect of all reversibly binding inhibitors and inhibitor conjugates with inhibiting constants smaller than 1 nM, a fluorescence spectrometer (LS50B from the company Perkin Elmer) was used. […] The Ki values are the average values of at least three calculations.

urokinase = urokinase (Homo sapiens, UniProt P00749); experiment: Inhibiting constants with respect to urokinase; format: biochemical; conditions: Example 8a table
From the text: as §1, §2

thrombin [2] = target: T1, thrombin; experiment: Kinetic constants of chloromethyl ketone inhibitors (method of Stein and Trainor); format: biochemical; conditions: chloromethyl ketone inhibitor; for Ki: read-out: Kii
trypsin = target: T3, trypsin (Bos taurus, UniProt P00760); experiment: Ki values for trypsin, determined analogously; format: biochemical
T3 sequence (P00760 24-246): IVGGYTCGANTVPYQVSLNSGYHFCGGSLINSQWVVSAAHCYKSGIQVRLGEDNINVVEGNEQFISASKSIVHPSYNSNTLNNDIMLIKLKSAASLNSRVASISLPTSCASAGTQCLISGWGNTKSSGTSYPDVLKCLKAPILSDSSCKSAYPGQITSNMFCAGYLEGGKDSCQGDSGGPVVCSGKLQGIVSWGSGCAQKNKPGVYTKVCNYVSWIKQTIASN
Protocol: The Ki values for trypsin were determined analogously.
For optimizing the inhibitor conjugates, in particular of the following Examples 1 and 2, suitable groups R1 were sought which allow as strong a thrombin inhibition as possible. For examining the selectivity of the compounds, the inhibiting constants for trypsin were determined as well. The higher the quotient [KiTrypsin/KiThrombin], the more selectively the compound functions as a thrombin inhibitor. In order to facilitate the synthesis, this optimization was first carried out without coupling a polyalkylene glycol group to inhibitor molecules of formula (II) as listed in Table I. These compounds, which are active as thrombin inhibitors themselves, can be used as synthetic intermediates for the inhibitor conjugates of formula (I). As a central component, a glycyl-prolyl-dipeptide was consistently incorporated into the inhibitors.

[3] = Elimination of the inhibitor conjugates in rats (blood level, urine recovery, clotting test); format: in vivo; conditions: female, Wistar, rat; for half-life: blood
Protocol: Preliminary remarks: Female Wistar rats with a body weight between 150 to 250 g were used for the experiments. The animals were kept under conventional conditions and were provided with standard food and water ad libitum. Anaesthetization was carried out with 1.5 g ethylurethane per kg of body weight. Then the right and left jugular veins were prepared and catheters were inserted so that blood could be drawn at different points of time. The urine was collected throughout the entire test period and the inhibitor concentration was determined by means of a clotting test.

[4] = Table 2, formula (III) compounds
[5] = Example 8, read-out: KiThrombin
[6] = Table I, formula (II) compounds

| Compound | Ki (human α-thrombin; [4]) | Ki Trypsin/Ki Thrombin (human α-thrombin; Table 2, selectivity quotient) | Ki (trypsin; [4]) | Ki (human α-thrombin; [6]) | Ki Trypsin/Ki Thrombin (human α-thrombin; Table I, selectivity quotient) | Ki (trypsin; [6]) | also measured |
| --- | --- | --- | --- | --- | --- | --- | --- |
| NC(N)=NCCC[C@H](NC(=O)[C@@H]1CCCN1C(=O)[C@H](N)Cc1ccccc1)C(=O)CCl [PPACK, D-Phe-Pro-Arg-CH2—Cl] |  |  |  |  |  |  | Kinact/Ki (thrombin [1]): 4.4e+06 M⁻¹ s⁻¹; kinact (thrombin [1]): 0.11 s⁻¹; Ki (thrombin [1]; read-out: Kii): 25 nM |
| N=C(N)NCCC[C@H](NC(=O)[C@@H]1CCCN1C(=O)[C@@H](CC1CCCCC1)NCC(=O)O)C(=O)CCl.O=C(O)C(F)(F)F.O=C(O)C(F)(F)F [analogous non-PEG-coupled compound, H-d-N(CH2—COOH)Cha-Pro-Arg-CH2—Cl×2 trifluoroacetic acid, reference compound] |  |  |  |  |  |  | Kinact/Ki (thrombin [2]): 2.1e+07 M⁻¹ s⁻¹; kinact (thrombin [2]): 0.079 s⁻¹; Ki (thrombin [2]): 3.8 nM |
| D-N(CH2—CO—NH-PEG5000-OMe)Cha-Pro-4-(amidomethyl)-N(amidino)piperidine×2 HCl |  |  |  | 3.5 nM | 1.8 | 6.2 nM | KiTrypsin/KiThrombin (human α-thrombin): 100; Ki (human α-thrombin; [5]): 2.4 nM; Ki (trypsin; Example 8, read-out: KiTrypsin): 239 nM |
| 4-methoxy-benzenesulfonyl-Asn(PEG2000-OMe)-Pro-4-amidinobenzylamide |  |  |  |  |  |  | Ki (tPA): 599000 nM; Ki (plasmin): 33500 nM; KiTrypsin/KiThrombin (human α-thrombin): 174; Ki (human α-thrombin; [5]): 0.53 nM; Ki (urokinase): 157000 nM; Ki (trypsin; Example 8, read-out: KiTrypsin): 92.5 nM |
| COc1ccc(S(=O)(=O)NCC(=O)N2CCC[C@H]2C(=O)NCc2ccc(C(=N)N)cc2)cc1 [1c] |  | 23.4 |  | 0.97 nM | 23.4 |  | Ki (tPA): 630 nM; Ki (plasmin): 5800 nM; Ki (urokinase): 225000 nM |
| 4-Methoxy-benzenesulfonyl-Lys(propionyl-PEG5000-OMe)-Pro-4-amidinobenzylamide |  |  |  |  |  |  | KiTrypsin/KiThrombin (human α-thrombin): 64; Ki (human α-thrombin; [5]): 0.95 nM; Ki (trypsin; Example 8, read-out: KiTrypsin): 61 nM |
| H-d-N(CH2—CONH-PEG2000-OMe)Cha-Pro-Arg-CH2—Cl×2 trifluoroacetic acid |  |  |  | 3.8 nM | 0.97 | 3.7 nM | Kinact/Ki (thrombin [2]): 7.5e+06 M⁻¹ s⁻¹; kinact (thrombin [2]): 0.08 s⁻¹; Ki (thrombin [2]): 10.6 nM |
| N=C(N)N1CCC(CNC(=O)[C@@H]2CCCN2C(=O)[C@@H](CC2CCCCC2)NCC(=O)O)CC1 [formula (IV)] |  |  |  |  |  |  | half-life ([3]; intravenous administration of 10 mg/kg): ~0.275 h; dose excreted ([3]; urine, sc, rats, subcutaneous administration, read-out: cumulative percentage recovery in the urine): ~58% |
| N=C(N)N1CCC(CNC(=O)[C@@H]2CCCN2C(=O)[C@@H](CC2CCCCC2)NCC(=O)NCC2COCCOCCOCCOCCO2)CC1 (some centres unmarked) [inhibitor structure (VI)] |  |  |  |  |  |  | half-life ([3]; sc, rats, subcutaneous administration of 5 mg/kg): ~5.83 h |

More lines, main results first:

| Ki (human α-thrombin; [4]) | Ki Trypsin/Ki Thrombin (human α-thrombin; Table 2, selectivity quotient) | Ki (trypsin; [4]) | Ki (human α-thrombin; [6]) | Ki Trypsin/Ki Thrombin (human α-thrombin; Table I, selectivity quotient) | Ki (trypsin; [6]) | Compound | also measured |
| --- | --- | --- | --- | --- | --- | --- | --- |
| 0.36 nM | 147 |  |  |  |  | COc1ccc(S(=O)(=O)NC(CC(N)=O)C(=O)N2CCCC2C(=O)NCc2ccc(C(=N)N)cc2)cc1 (centres unmarked) [compound 50] | Ki (tPA): 47000 nM; Ki (plasmin): 17500 nM; Ki (urokinase): 52000 nM |
| 0.045 nM | 911 | 41 nM |  |  |  | COc1ccc(S(=O)(=O)N[C@@H](CC(=O)NCc2ccc(C#N)cc2)C(=O)N2CCC[C@H]2C(=O)NCc2ccc(C(=N)N)cc2)cc1 [compound 44] |  |
| 1.3 nM | 13.6 | 17.6 nM |  |  |  | N=C(N)c1ccc(CNC(=O)[C@@H]2CCCN2C(=O)[C@H](CC(=O)OCc2ccccc2)NS(=O)(=O)c2ccc3ccccc3c2)cc1 [compound 36] |  |
|  |  |  | 1.9 nM | 1.6 | 3 nM | H-D-N(CH2—CO—NH-PEG5000-OMe)Cha-Pro-4-(amidino)benzylamide | KiTrypsin/KiThrombin (human α-thrombin): 3.5; Ki (human α-thrombin; [5]): 0.97 nM; Ki (trypsin; Example 8, read-out: KiTrypsin): 3.4 nM |
|  |  |  | 13.5 nM | 0.67 | 9.1 nM | CC(C)c1cc(C(C)C)c(S(=O)(=O)NCC(=O)N2CCC[C@H]2C(=O)NCc2ccc(C(=N)N)cc2)c(C(C)C)c1 [compound 19] |  |
| 0.255 nM | 67 | 17 nM |  |  |  | COc1ccc(S(=O)(=O)N[C@@H](CO)C(=O)N2CCC[C@H]2C(=O)NCc2ccc(C(=N)N)cc2)cc1 [compound 51] |  |
|  |  |  | 1.3 nM | 12.1 | 15.7 nM | COc1cc(C)c(S(=O)(=O)NCC(=O)N2CCC[C@H]2C(=O)NCc2ccc(C(=N)N)cc2)c(C)c1C [compound 2] |  |
| 0.08 nM | 512 | 41 nM |  |  |  | COc1ccc(S(=O)(=O)N[C@@H](CC(=O)NCc2cccc(CN)c2)C(=O)N2CCC[C@H]2C(=O)NCc2ccc(C(=N)N)cc2)cc1 [compound 48] |  |
| 0.061 nM | 639 | 39 nM |  |  |  | COc1ccc(S(=O)(=O)N[C@@H](CC(=O)NCc2ccc(CN)cc2)C(=O)N2CCC[C@H]2C(=O)NCc2ccc(C(=N)N)cc2)cc1 [compound 45] |  |
|  |  |  | 41.9 nM | 0.39 | 16.5 nM | N=C(N)c1ccc(CNC(=O)[C@@H]2CCCN2C(=O)CNS(=O)(=O)CCc2ccccc2)cc1 [compound 31] |  |
| 0.21 nM | 181 | 38 nM |  |  |  | COc1ccc(S(=O)(=O)N[C@@H](CC(=O)OCc2ccccc2)C(=O)N2CCC[C@H]2C(=O)NCc2ccc(C(=N)N)cc2)cc1 [compound 49] |  |
